Reference: patent US20240376099A1, “COMPOUNDS AND COMPOSITIONS AS INHIBITORS OF ENDOSOMAL TOLL-LIKE RECEPTORS” (Novartis AG, priority 2016, published 2024)

Target: T1, TLR9 (Homo sapiens, UniProt Q9NR96)
T1 construct: Fresh blood was collected from normal human donors; endogenous in cells; host or cells: human PBMCs from fresh donor blood
T1 sequence (Q9NR96 26-1032): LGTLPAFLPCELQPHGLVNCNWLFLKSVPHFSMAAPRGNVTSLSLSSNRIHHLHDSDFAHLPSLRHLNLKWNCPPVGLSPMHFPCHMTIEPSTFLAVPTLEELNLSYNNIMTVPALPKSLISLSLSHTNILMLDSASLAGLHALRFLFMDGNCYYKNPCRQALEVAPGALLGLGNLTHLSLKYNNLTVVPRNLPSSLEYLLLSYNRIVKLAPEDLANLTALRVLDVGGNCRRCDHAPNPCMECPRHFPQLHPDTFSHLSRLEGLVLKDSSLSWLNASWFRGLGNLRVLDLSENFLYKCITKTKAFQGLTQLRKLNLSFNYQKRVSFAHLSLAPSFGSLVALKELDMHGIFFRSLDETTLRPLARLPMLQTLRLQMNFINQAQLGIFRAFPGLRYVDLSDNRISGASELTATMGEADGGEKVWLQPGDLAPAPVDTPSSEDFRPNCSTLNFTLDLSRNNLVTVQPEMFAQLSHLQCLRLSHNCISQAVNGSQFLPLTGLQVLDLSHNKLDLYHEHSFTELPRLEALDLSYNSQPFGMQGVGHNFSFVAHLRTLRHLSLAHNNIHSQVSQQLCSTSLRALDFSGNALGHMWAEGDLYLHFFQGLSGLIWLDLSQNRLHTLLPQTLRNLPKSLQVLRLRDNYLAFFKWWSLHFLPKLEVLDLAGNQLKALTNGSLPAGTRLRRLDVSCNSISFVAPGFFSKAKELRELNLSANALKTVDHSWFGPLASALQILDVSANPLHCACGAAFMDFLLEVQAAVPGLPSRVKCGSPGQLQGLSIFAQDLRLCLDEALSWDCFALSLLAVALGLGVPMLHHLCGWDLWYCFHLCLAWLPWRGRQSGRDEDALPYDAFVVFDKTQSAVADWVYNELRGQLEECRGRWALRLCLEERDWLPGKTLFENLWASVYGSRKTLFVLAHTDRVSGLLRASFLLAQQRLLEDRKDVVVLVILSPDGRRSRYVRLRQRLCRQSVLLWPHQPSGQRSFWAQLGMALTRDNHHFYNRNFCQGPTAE
Assay: huPBMC TLR9 Antagonist IFNα Assay
Format: cell-based
Conditions: human PBMCs stimulated with ODN2216 0.3 μM, 14-16 hrs; IFNα2b AlphaLISA read-out
Summary of the method: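 Human PBMCs from fresh donor blood (150,000 cells/well) stimulated 14–16 h at 37 °C with DOTAP-complexed ssRNA40 (final 1 μg/ml for TLR8, 10 μg/mL for TLR7) or ODN2216 (final 0.3 μM, TLR9), 0.25% DMSO, ten-point 1/3 compound dilutions. Supernatant IL-6 read by HTRF (TLR8); IFNα by IFNα2b AlphaLISA (TLR7/TLR9).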

IC50 | Compound
0.963 µM | Cc1cc(N2CCc3c(c(C)nn3CC34CCC(N5CC[C@H](O)C5)(CC3)CC4)C2)c2cnn(C)c2n1 [compound 75, (S)-1-(4-((5-(1,6-dimethyl-1H-pyrazolo[3,4-b]pyridin-4-yl)-3-methyl-4,5,6,7-tetrahydro-1H-pyrazolo[4,3-c]pyridin-1-yl)methyl)bicyclo[2.2.2]octan-1-yl)pyrrolidin-3-ol]
0.064 µM | Cc1cc(N2CCc3c(c(C)nn3CC34CCC(N(C)C5CCC5)(CC3)CC4)C2)c2cnn(C)c2n1 [compound 79, N-cyclobutyl-4-((5-(1,6-dimethyl-1H-pyrazolo[3,4-b]pyridin-4-yl)-3-methyl-4,5,6,7-tetrahydro-1H-pyrazolo[4,3-c]pyridin-1-yl)methyl)-N-methylbicyclo[2.2.2]octan-1-amine]
0.249 µM | Cc1cc(N2CCc3c(c(C)nn3CC34CCC(N5C[C@H](O)[C@@H](O)C5)(CC3)CC4)C2)c2cnn(C)c2n1 [compound 80, (3S,4S)-1-(4-((5-(1,6-dimethyl-1H-pyrazolo[3,4-b]pyridin-4-yl)-3-methyl-4,5,6,7-tetrahydro-1H-pyrazolo[4,3-c]pyridin-1-yl)methyl)bicyclo[2.2.2]octan-1-yl)pyrrolidine-3,4-diol]

The next lines start with the compound.

Compound | IC50
Cc1nn(CC23CCC(N4CCCC4)(CC2)CC3)c2c1CN(c1ccnc(-c3ccccc3)c1)CC2 [compound 85, 3-methyl-5-(2-phenylpyridin-4-yl)-1-((4-(pyrrolidin-1-yl)bicyclo[2.2.2]octan-1-yl)methyl)-4,5,6,7-tetrahydro-1H-pyrazolo[4,3-c]pyridine] | 0.569 µM
Cc1cc(N2CCc3c(c(C)nn3CC34CCC(N5CCCC5)(CC3)CC4)C2)c2ccncc2n1 [compound 86, 2-methyl-4-(3-methyl-1-((4-(pyrrolidin-1-yl)bicyclo[2.2.2]octan-1-yl)methyl)-6,7-dihydro-1H-pyrazolo[4,3-c]pyridin-5(4H)-yl)-1,7-naphthyridine] | 2.74 µM
Cc1cc(N2CCc3c(c(C)nn3CCC34CCC(N)(CC3)CC4)C2)c2cnn(C)c2n1 [compound 91, 4-(2-(5-(1,6-dimethyl-1H-pyrazolo[3,4-b]pyridin-4-yl)-3-methyl-4,5,6,7-tetrahydro-1H-pyrazolo[4,3-c]pyridin-1-yl)ethyl)bicyclo[2.2.2]octan-1-amine] | 0.215 µM
Cc1cc(N2CCc3c(c(C)nn3CC34CCC(N)(CC3)CC4)C2)c2ccnc(C)c2n1 [compound 92, 4-((5-(2,8-dimethyl-1,7-naphthyridin-4-yl)-3-methyl-4,5,6,7-tetrahydro-1H-pyrazolo[4,3-c]pyridin-1-yl)methyl)bicyclo[2.2.2]octan-1-amine] | 0.094 µM
